Results reported in ChEMBL document CHEMBL3507680, “University of Dundee, Gates Library screen for HepG2 cell viability”.

Assay: Human HepG2 cell viability assay in 384 well format
Type: toxicity, cell-based
Design: dose 125 nL, time 70.5 hour; cytotoxicity at 70.5 h: concentration not given beside the values
Details: HepG2 cells, read-out: Inhibition

SMILES | cytotoxicity at 70.5 h [%]
Cc1ccc(-c2cn3c(n2)CO[C@@H](CNCc2cccnc2)C3)cc1 | 11
C[C@@H](NC(=O)c1cccnc1)c1onc(-c2ccccc2)c1C(=O)O | -4.96
CNC(=O)C(C)(C)N1CCC[C@H]1C(=O)NCC1CC1 | 9.57
c1ccc2c(Cc3nnc([C@H]4CCN(C5CCOCC5)C4)o3)c[nH]c2c1 | -0.535
CC(=O)N1CCOC[C@H](OCC(=O)N(C)C)C1 | 0.496
CN1CCN2C(=O)N(C3CCCCC3)C[C@H]2C1 | -5.56
CC(C)(O)c1cc(CC2(NCc3ccco3)COC2)no1 | -7.88
Cc1cccc2c1nc1n2[C@@H](CNC(=O)c2cnccn2)COC1 | 12.8
Cc1cccc2c1nc1n2[C@@H](CNC(=O)CCC(=O)O)COC1 | -4.85
COc1ccccc1C(=O)NC[C@H]1COCc2nc3c(C)cccc3n21 | -1.28
O[C@@H]1C[C@@H](c2nc(Cc3ccccc3)no2)N(Cc2ncc[nH]2)C1 | 9.72
Cc1ccc(CN2C[C@H]3CN(C(=O)c4ccno4)CCN3C2=O)cc1 | 6.23
O=C1NC[C@H]2CN(Cc3ccnc4ccccc34)CCN12 | -6.05
CN(C)C(=O)CO[C@H]1COCCN(C2CCOCC2)C1 | -4.86
CC(C)(C)c1coc([C@@H]2COCCN2CC2CC2)n1 | -0.839
CCCOc1cc(C)c2c(c1C)C[C@H]([C@H](C)C(=O)O)CC2 | -3.42
COc1ccc2c(c1)nc1n2[C@@H](CNC(=O)c2ccccn2)COC1 | -7.73
Cn1c(CO[C@H]2CN(S(C)(=O)=O)C[C@H]2F)nc2ccccc21 | -1.31
FC(F)(F)c1ccc(CNC[C@H]2COCc3nc4cccnc4n32)cc1 | -3.68
Cc1noc([C@@H]2C[C@H](NS(=O)(=O)Cc3ccccc3)CN2C)n1 | -3.9
O=C1CO[C@H]2CN(Cc3c[nH]c4ccccc34)C[C@H]2N1 | 7.73
COc1ccc2c(c1)nc1n2[C@@H](CNCc2ncccc2C)COC1 | -5.69

SMILES | cytotoxicity at 70.5 h [%]
c1ccc2c(c1)nc1n2[C@@H](CNCc2nccs2)COC1 | -19.6
O=C(C1CC1)N1C[C@@H](F)[C@@H](OCc2nc3ccccc3o2)C1 | 0.185
COCCOc1ccnc(-c2noc([C@@H]3CCCN3C(C)C)n2)c1 | -5.66
NC(=O)c1cccc2nc([C@H]3CCN(Cc4ccccc4F)C3)[nH]c12 | -3.45
CC(C)NC(=O)N[C@H]1C[C@@H](Cc2cc(CN3CCOCC3)on2)C1(C)C | -8.22
COCCN1C(=O)CO[C@H]2CN(Cc3ccccc3OC)C[C@H]21 | -13.3
COC(=O)c1ccc2nc(CO[C@H]3CN(CC4CC4)C[C@H]3F)[nH]c2c1 | 1.07
CC(=O)NC[C@H]1COCc2nc3c(C)cccc3n21 | 10.8
Cc1ccc2[nH]c(CO[C@H]3CN(C(=O)C4CC4)C[C@H]3F)nc2c1 | 3.41
CS(=O)(=O)c1ccc(CNC[C@H]2COCc3nc4cccnc4n32)cc1 | -1.94
c1cnc2c(c1)nc1n2[C@@H](CNCc2nccs2)COC1 | -8.24
Cc1cc2nc(CO[C@H]3CN(C)C[C@H]3F)[nH]c2cc1C | -0.513
CC(=O)N1CCC(N[C@@H]2CO[C@H](CNC(=O)C3CCCC3)[C@H]2O)CC1 | -5.38
O=C1N(c2ccccc2)C[C@H]2CN(C3CCC3)CCN12 | -3.05
COCCN1C[C@H]2CN(Cc3cccc(OC(F)(F)F)c3)CCN2C1=O | -7.08
COCCN1C[C@H]2CN(Cc3cccc(OC)c3)CCN2C1=O | -7.25
O=C1N(Cc2cccnc2)C[C@H]2CN(S(=O)(=O)c3ccccc3)CCN12 | 1.73
O[C@H]1COCCN(Cc2cccc3c2OCO3)C1 | -4.2
COc1ccc(O[C@H]2COCCN(Cc3c[nH]c4ccccc34)C2)cc1 | 1.44
CO[C@H]1COCCN(C(=O)c2ccc(F)cc2)C1 | -3.92
Cc1ccc(S(=O)(=O)NC[C@H]2OC[C@@H](NCc3ccccc3)[C@@H]2O)cc1 | -10
O=C1N(Cc2ccccc2)C[C@H]2CN(Cc3ccccc3Cl)CCN12 | -1.14

SMILES | cytotoxicity at 70.5 h [%]
CS(=O)(=O)N1CCN2C(=O)N(C3CCCCC3)C[C@H]2C1 | 7.82
O=C1NC[C@H]2CN(Cc3ccccn3)CCN12 | 0.693
CN1C[C@H]2CN(C(=O)c3ccc4c(c3)OCO4)CCN2C1=O | -8.59
CS(=O)(=O)N1CCN2C(=O)N(C3CCOCC3)C[C@H]2C1 | 12.9
COc1ccc(-c2cn3c(n2)CO[C@@H](CNCc2ccccn2)C3)cc1 | -0.00582
c1cncc(O[C@H]2COCCN(C3CCC3)C2)c1 | 1.49
CC(C)C(=O)N1CCOC[C@H](Oc2ccc(C(F)(F)F)cc2)C1 | -1.93
COc1ccc(CN2CCOC[C@H](OCC(=O)N(C)C)C2)cc1 | -1.39
CCn1c(C2CCCN(Cc3nccn3CCOC)C2)nn(C)c1=O (stereo unspecified) | -11.9
CC1CCN(Cc2cnc(S(=O)(=O)CC3CC3)n2CC2CCCO2)CC1 (stereo unspecified) | 11.8
COCc1ncc(CN2CCC(Oc3ccccc3OC)CC2)cn1 | -10.9
CC(C)c1cc(N2CCC(CCC(=O)NC3CC3)CC2)n2nccc2n1 | -10.7
N#Cc1ccccc1C(=O)N1CCC2(CC(=O)NC2=O)C1 (stereo unspecified) | 15.7
Cc1cc(F)ccc1OC1(C(=O)O)CCN(Cc2cccnc2N)CC1 | 0.105
C[C@@H]1CN(C(=O)c2ccc(C#N)nc2)CC[C@@]1(O)C1CCOCC1 | -9.58
CN1N=C(C(=O)N2CCCC(CCc3c(F)cccc3F)C2)CCC1=O (stereo unspecified) | -8.44
CN(C)C(=O)CCC(=O)NCc1cccnc1-n1cnc2ccccc21 | -8.79
CN(C)C(C(=O)N1CCC(N2CCSCC2)CC1)c1ccccc1F (stereo unspecified) | -3.23
CCc1cnc(N2CCC(=O)N(CC3CC3)C(C(C)C)C2)nc1 (stereo unspecified) | 8.36
Cn1cccc1CCC(=O)N1CCC2(CC1)c1ccccc1CC2O (stereo unspecified) | -12.2
Cc1cc(C(=O)N2CCC(c3nccn3CCCN(C)C)CC2)no1 | 0.885
COc1ccccc1Oc1ncccc1CNC(=O)[C@@H](C)NC(C)=O | -0.828

SMILES | cytotoxicity at 70.5 h [%]
Cc1occc1C(=O)N1CCC2(CCCN(CC3CCC3)C2=O)C1 (stereo unspecified) | -4.3
CSc1cccc(CNC(=O)C2CC(=O)N(CCN(C)C)C2)c1 (stereo unspecified) | 4.55
COc1cc(C)c(CN2CCC3(CC2)C(C(=O)O)CC(=O)N3C)cc1C (stereo unspecified) | 3.6
O=C(c1ccc(C2CCCO2)s1)N1Cc2ccccc2C1 (stereo unspecified) | 0.527
COc1ccc(NC(=O)CCC2CCCN(Cc3ncon3)C2)c(C)c1 (stereo unspecified) | -4.69
COc1ccc(OC)c(C2CCN(Cc3nc(C)n4ccccc34)C2)c1 (stereo unspecified) | -12.6
O=C(c1cncc(N2CCC3(CCNCC3)CC2)n1)N1CCCC1 | 12.4
COc1ccccc1C1CNC(=O)c2nc(-c3cnn(C)c3)[nH]c2C1 (stereo unspecified) | -7.47
O=C1OC2(CCNCC2)CN1CC(=O)N1CCCC1c1ccco1 (stereo unspecified) | -9.95
Cc1nc[nH]c1CN1CCN(C(=O)c2cccs2)[C@H]2CS(=O)(=O)C[C@H]21 | -8.73
Cc1ccsc1[C@@H]1CCN(C(=O)c2cc3ccccc3[nH]2)C[C@H]1O | 0.623
O=C(O)C1(Cc2ccccc2Cl)CCN(c2ncccc2F)CC1 | -6.72
Cc1cnn(C(C)C2CC2)c1NC(=O)c1ccncc1 (stereo unspecified) | -8.36
CN(C)C(=O)CN1C[C@@H]2CC[C@H](C1)N(C(=O)Cc1ccccc1Cl)C2 | 8.11
CCCNC(=O)c1ccc2c(c1)C(=O)N(CC(C)C)C2=O | -1.77
CSCCCN1CC[C@@H](NC(=O)c2cnccn2)[C@H](O)C1 | -10.8
CC(C)(C)N1CC(C(=O)N2CCN(CCn3cccc3)CC2)CC1=O (stereo unspecified) | -2.66
CSCC(=O)N1CCC2(CC1)c1ccccc1CC2O (stereo unspecified) | 16.5
COC(=O)C1CCN(C(=O)c2ccc(NS(C)(=O)=O)c(C)c2)CC1 | -9.09
CCCN1CC(C(=O)Nc2ccccn2)CC1=O (stereo unspecified) | -5.78
COC(=O)C1CCN(C(=O)c2ccc(N(C)S(C)(=O)=O)c(C)c2)CC1 | -10.1
Cc1cnc(C)c(N2CCN(Cc3ccc(-c4cc[nH]n4)o3)CC2)n1 | -12.4

SMILES | cytotoxicity at 70.5 h [%]
CCN(c1ccc(C(=O)N2CCCC2)cc1)S(=O)(=O)CC | -10.8
CCC(NC(=O)C1CCN(S(=O)(=O)N(C)C)CC1)c1ccc(C)c(C)c1 (stereo unspecified) | -5.81
CCC(C(=O)NCc1ccncc1)N(c1ccc(OC)cc1)S(C)(=O)=O (stereo unspecified) | -4.69
CN1CCC(Oc2ccc(NC(=O)c3cccc(Cl)c3)cc2)CC1 | -3.56
CCC(C(=O)NC)N(c1cccc(C)c1)S(C)(=O)=O (stereo unspecified) | 11.9
CC(C)(N)CN1CCC(c2nnc(CN3CCCC3)n2C2CC2)CC1 | -0.439
CCC(=O)N1CCC(c2nnc(Cn3cncn3)n2C2CC2)CC1 | 6.31
CCCS(=O)(=O)N1CCN(c2ccnc(N3CCCC3)n2)CC1 | -7.03
COc1ccc(NC(=O)Cn2nc(C)c(C)cc2=O)cc1OC | 12.7
COc1ccc(CNC[C@@]2(COc3cccnc3)C[C@@H](O)[C@@H](O)C2)cc1 | 10.2
COCCOC[C@]1(CNCc2cccc(OC)c2)C[C@@H](O)[C@@H](O)C1 | 0.877
O=C(NC[C@@]1(COc2cnccn2)C[C@@H](O)[C@@H](O)C1)C1CCCC1 | 10.3
C[C@@H](NC(=O)c1ccc(Cl)cc1)c1onc(-c2cccnc2)c1C(=O)O | -6
O=C(NC[C@@]1(COc2cnccn2)C[C@@H](O)[C@@H](O)C1)C1CCOCC1 | -1.95
O[C@@H]1C[C@@](CNCc2cccc(Cl)c2)(COc2cnccn2)C[C@@H]1O | -12
O[C@@H]1C[C@@](CNCC2CC2)(COc2cccnc2)C[C@@H]1O | -7.73
O[C@@H]1C[C@@](CNCc2ccc(F)cc2)(COc2cccnc2)C[C@@H]1O | 0.0431
O[C@@H]1C[C@@](CNCc2ccccn2)(COc2cccnc2)C[C@@H]1O | -8.64
